# “And” between values parts separate entries of the source, which are not always exact repeats. Equal values may be shown once.
# Legend:
# CCRF-CEM = assay: NCI single dose (10 µM) SRB screen; format: cell-based, human; details: leukaemia, 48 h
# HL-60(TB) = assay: NCI single dose (10 µM) SRB screen; format: cell-based, human; details: leukaemia, 48 h
# K-562 = assay: NCI single dose (10 µM) SRB screen; format: cell-based, human; details: leukaemia, 48 h
# MOLT-4 = assay: NCI single dose (10 µM) SRB screen; format: cell-based, human; details: leukaemia, 48 h
# RPMI-8226 = assay: NCI single dose (10 µM) SRB screen; format: cell-based, human; details: leukaemia, 48 h
# SR = assay: NCI single dose (10 µM) SRB screen; format: cell-based, human; details: leukaemia, 48 h
# A549/ATCC = assay: NCI single dose (10 µM) SRB screen; format: cell-based, human; details: non-small cell lung cancer, 48 h
# EKVX = assay: NCI single dose (10 µM) SRB screen; format: cell-based, human; details: non-small cell lung cancer, 48 h
# HOP-62 = assay: NCI single dose (10 µM) SRB screen; format: cell-based, human; details: non-small cell lung cancer, 48 h
# HOP-92 = assay: NCI single dose (10 µM) SRB screen; format: cell-based, human; details: non-small cell lung cancer, 48 h
# NCI-H23 = assay: NCI single dose (10 µM) SRB screen; format: cell-based, human; details: non-small cell lung cancer, 48 h
# NCI-H322M = assay: NCI single dose (10 µM) SRB screen; format: cell-based; details: non-small cell lung cancer, 48 h
# NCI-H460 = assay: NCI single dose (10 µM) SRB screen; format: cell-based, human; details: non-small cell lung cancer, 48 h
# NCI-H522 = assay: NCI single dose (10 µM) SRB screen; format: cell-based, human; details: non-small cell lung cancer, 48 h
# COLO 205 = assay: NCI single dose (10 µM) SRB screen; format: cell-based, human; details: colon cancer, 48 h
# HCC-2998 = assay: NCI single dose (10 µM) SRB screen; format: cell-based, human; details: colon cancer, 48 h
# HCT-116 = assay: NCI single dose (10 µM) SRB screen; format: cell-based, human; details: colon cancer, 48 h
# HCT-15 = assay: NCI single dose (10 µM) SRB screen; format: cell-based, human; details: colon cancer, 48 h
# HT29 = assay: NCI single dose (10 µM) SRB screen; format: cell-based, human; details: colon cancer, 48 h
# KM12 = assay: NCI single dose (10 µM) SRB screen; format: cell-based, human; details: colon cancer, 48 h
# SF-268 = assay: NCI single dose (10 µM) SRB screen; format: cell-based, human; details: CNS cancer, 48 h
# SF-295 = assay: NCI single dose (10 µM) SRB screen; format: cell-based, human; details: CNS cancer, 48 h
# SF-539 = assay: NCI single dose (10 µM) SRB screen; format: cell-based, human; details: CNS cancer, 48 h
# SNB-19 = assay: NCI single dose (10 µM) SRB screen; format: cell-based, human; details: CNS cancer, 48 h
# SNB-75 = assay: NCI single dose (10 µM) SRB screen; format: cell-based, human; details: CNS cancer, 48 h
# U251 = assay: NCI single dose (10 µM) SRB screen; format: cell-based, human; details: CNS cancer, 48 h
# MALME-3M = assay: NCI single dose (10 µM) SRB screen; format: cell-based, human; details: melanoma, 48 h
# M14 = assay: NCI single dose (10 µM) SRB screen; format: cell-based, human; details: melanoma, 48 h
# MDA-MB-435 = assay: NCI single dose (10 µM) SRB screen; format: cell-based, human; details: melanoma, 48 h
# SK-MEL-2 = assay: NCI single dose (10 µM) SRB screen; format: cell-based, human; details: melanoma, 48 h
# SK-MEL-28 = assay: NCI single dose (10 µM) SRB screen; format: cell-based, human; details: melanoma, 48 h
# UACC-257 = assay: NCI single dose (10 µM) SRB screen; format: cell-based, human; details: melanoma, 48 h
# UACC-62 = assay: NCI single dose (10 µM) SRB screen; format: cell-based, human; details: melanoma, 48 h
# IGROV1 = assay: NCI single dose (10 µM) SRB screen; format: cell-based, human; details: ovarian cancer, 48 h
# OVCAR-5 = assay: NCI single dose (10 µM) SRB screen; format: cell-based, human; details: ovarian cancer, 48 h
# NCI/ADR-RES = assay: NCI single dose (10 µM) SRB screen; format: cell-based, human; details: ovarian cancer, 48 h
# SK-OV-3 = assay: NCI single dose (10 µM) SRB screen; format: cell-based, human; details: ovarian cancer, 48 h
# 786-0 = assay: NCI single dose (10 µM) SRB screen; format: cell-based, human; details: renal cancer, 48 h
# A498 = assay: NCI single dose (10 µM) SRB screen; format: cell-based, human; details: renal cancer, 48 h
# ACHN = assay: NCI single dose (10 µM) SRB screen; format: cell-based, human; details: renal cancer, 48 h
# CAKI-1 = assay: NCI single dose (10 µM) SRB screen; format: cell-based, human; details: renal cancer, 48 h
# SN12C = assay: NCI single dose (10 µM) SRB screen; format: cell-based, human; details: renal cancer, 48 h
# TK-10 = assay: NCI single dose (10 µM) SRB screen; format: cell-based, human; details: renal cancer, 48 h
# UO-31 = assay: NCI single dose (10 µM) SRB screen; format: cell-based, human; details: renal cancer, 48 h
# PC-3 = assay: NCI single dose (10 µM) SRB screen; format: cell-based, human; details: prostate cancer, 48 h
# DU-145 = assay: NCI single dose (10 µM) SRB screen; format: cell-based, human; details: prostate cancer, 48 h
# MDA-MB-231 = assay: NCI single dose (10 µM) SRB screen; format: cell-based, human; details: breast cancer, 48 h
# T-47D = assay: NCI single dose (10 µM) SRB screen; format: cell-based, human; details: breast cancer, 48 h
# MDA-MB-468 = assay: NCI single dose (10 µM) SRB screen; format: cell-based, human; details: breast cancer, 48 h
# Staphylococcus aureus = assay: Agar well diffusion method
# Bacillus subtilis = assay: Agar well diffusion method
# Escherichia coli = assay: Agar well diffusion method
# Pseudomonas aeruginosa = assay: Agar well diffusion method
smiles,measurement,setting,value
"COC(=O)C1=C(C)NC(C)=C(C(=O)OC(C)C)C1c1cccc(C#N)c1 (racemic) [Compound 2a, (±)-3-Isopropyl 5-methyl 4-(3-cyanophenyl)-2,6-dimethyl-1,4-dihydropyridine-3,5-dicarboxylate]",GI% CCRF-CEM,CCRF-CEM,– (Only GI% ≥ 10 are shown)
same,GI% HL-60(TB),HL-60(TB),23%
same,GI% K-562,K-562,16%
same,GI% MOLT-4,MOLT-4,16%
same,GI% RPMI-8226,RPMI-8226,– (Only GI% ≥ 10 are shown)
same,GI% SR,SR,– (Only GI% ≥ 10 are shown)
same,GI% A549/ATCC,A549/ATCC,– (Only GI% ≥ 10 are shown)
same,GI% EKVX,EKVX,– (Only GI% ≥ 10 are shown)
same,GI% HOP-62,HOP-62,– (Only GI% ≥ 10 are shown)
same,GI% HOP-92,HOP-92,– (Only GI% ≥ 10 are shown)
same,GI% NCI-H23,NCI-H23,– (Only GI% ≥ 10 are shown)
same,GI% NCI-H322M,NCI-H322M,– (Only GI% ≥ 10 are shown)
same,GI% NCI-H460,NCI-H460,– (Only GI% ≥ 10 are shown)
same,GI% NCI-H522,NCI-H522,14%
same,GI% COLO 205,COLO 205,– (Only GI% ≥ 10 are shown)
same,GI% HCC-2998,HCC-2998,– (Only GI% ≥ 10 are shown)
same,GI% HCT-116,HCT-116,– (Only GI% ≥ 10 are shown)
same,GI% HCT-15,HCT-15,– (Only GI% ≥ 10 are shown)
same,GI% HT29,HT29,– (Only GI% ≥ 10 are shown)
same,GI% KM12,KM12,– (Only GI% ≥ 10 are shown)
same,GI% SF-268,SF-268,– (Only GI% ≥ 10 are shown)
same,GI% SF-295,SF-295,– (Only GI% ≥ 10 are shown)
same,GI% SF-539,SF-539,– (Only GI% ≥ 10 are shown)
same,GI% SNB-19,SNB-19,– (Only GI% ≥ 10 are shown)
same,GI% SNB-75,SNB-75,– (Only GI% ≥ 10 are shown)
same,GI% U251,U251,– (Only GI% ≥ 10 are shown)
same,GI% MALME-3M,MALME-3M,– (Only GI% ≥ 10 are shown)
same,GI% M14,M14,– (Only GI% ≥ 10 are shown)
same,GI% MDA-MB-435,MDA-MB-435,– (Only GI% ≥ 10 are shown)
same,GI% SK-MEL-2,SK-MEL-2,– (Only GI% ≥ 10 are shown)
same,GI% SK-MEL-28,SK-MEL-28,– (Only GI% ≥ 10 are shown)
same,GI% UACC-257,UACC-257,– (Only GI% ≥ 10 are shown)
same,GI% UACC-62,UACC-62,– (Only GI% ≥ 10 are shown)
same,GI% IGROV1,IGROV1,– (Only GI% ≥ 10 are shown)
same,GI% OVCAR-5,OVCAR-5,– (Only GI% ≥ 10 are shown)
same,GI% NCI/ADR-RES,NCI/ADR-RES,– (Only GI% ≥ 10 are shown)
same,GI% SK-OV-3,SK-OV-3,– (Only GI% ≥ 10 are shown)
same,GI% 786-0,786-0,– (Only GI% ≥ 10 are shown)
same,GI% A498,A498,11%
same,GI% ACHN,ACHN,– (Only GI% ≥ 10 are shown)
same,GI% CAKI-1,CAKI-1,11%
same,GI% SN12C,SN12C,– (Only GI% ≥ 10 are shown)
same,GI% TK-10,TK-10,– (Only GI% ≥ 10 are shown)
same,GI% UO-31,UO-31,– (Only GI% ≥ 10 are shown)
same,GI% PC-3,PC-3,16%
same,GI% DU-145,DU-145,– (Only GI% ≥ 10 are shown)
same,GI% MDA-MB-231,MDA-MB-231,– (Only GI% ≥ 10 are shown)
same,GI% T-47D,T-47D,– (Only GI% ≥ 10 are shown)
same,GI% MDA-MB-468,MDA-MB-468,– (Only GI% ≥ 10 are shown)
same,zone of inhibition at 1000 µg/mL,"Staphylococcus aureus; Staphylococcus aureus, 24 h, read-out: Diameter of inhibition zone, S. aureus",20 mm
same,"% activity index, S. aureus",Staphylococcus aureus; relative to ciprofloxacin,83% and 83.3%
same,zone of inhibition at 1000 µg/mL,"Bacillus subtilis; Bacillus subtilis, 24 h, read-out: Diameter of inhibition zone, B. subtilis",17 mm
same,"% activity index, B. subtilis",Bacillus subtilis; relative to ciprofloxacin,73% and 73.9%
same,zone of inhibition at 1000 µg/mL,"Escherichia coli; Escherichia coli, 24 h, read-out: Diameter of inhibition zone, E. coli",14 mm
same,"% activity index, E. coli",Escherichia coli; relative to ciprofloxacin,53.8%
same,zone of inhibition at 1000 µg/mL,"Pseudomonas aeruginosa; Pseudomonas aeruginosa, 24 h, read-out: Diameter of inhibition zone, P. aeruginosa",19 mm
same,"% activity index, P. aeruginosa",Pseudomonas aeruginosa; relative to ciprofloxacin,82.6%

# From paper PMC9481151, “Discovery of new symmetrical and asymmetrical nitrile-containing 1,4-dihydropyridine derivatives as dual kinases and P-glycoprotein inhibitors: synthesis, in vitro assays, and in silico studies” (Journal of Enzyme Inhibition and Medicinal Chemistry, 2022)
